Experimental data taken from paper PMC12655733, “Design, Synthesis and Evaluation of the First 2-Alkynyl(aza)indole ^18F Probe Targeting α-Synuclein Aggregates” (Pharmaceuticals, 2025).
Like-named read-outs stand apart in the source and are kept apart here.

Legend:
[1] = target: T1, Tau fibrils (isoform h2N4RTau) (Homo sapiens, UniProt P10636); experiment: Inhibition of thioflavin T binding to Tau fibrils (fluorescence competition), Ki determination; details: calculated from IC50, competition with ThT 500 nM, fibrils 200 nM, mean ± SD of 3 experiments
T1 construct: made in house; host or cells: Escherichia coli BL21(DE3), pET11d vector
Method: (§1) Wild-type α-syn and Aβ1-42 were expressed in the Escherichia coli strain BL21(DE3) (Stratagene, La Jolla, CA, USA) and purified as described. […] For the Aβ1-42 peptide, the concentration was determined by a fluorometric method using the reactive compound fluorescamine (Sigma, San Jose, CA, USA) that reacts with primary amino groups to form a fluorescent product. The human Tau protein (isoform h2N4RTau) was expressed in the pET11d vector in the Escherichia coli strain BL21(DE3) (Stratagene, La Jolla, CA, USA) and purified as described.
(§2) For assembly into fibrils, α-syn was incubated in 50 mM Tris-HCl, pH 7.5, 150 mM KCl at 37 °C under continuous shaking for 4 days. Lyophilized Aβ1-42 was dissolved in 1,1,1,3,3,3-hexafluoro-2-propanol (HFIP) at a concentration of 0.2 mg/mL and incubated for 24 h at 37 °C to achieve complete solubilization. HFIP was evaporated under a nitrogen stream to obtain a dry film. To start assembly into fibrils, the dry peptide was resuspended in PBS pH 7.4, 10% (v/v) DMSO and incubated at 37 °C without shaking for 3 days. The Tau protein was assembled in fibrils in a PBS buffer containing 1 mM of DTT in the presence of 1/12 heparin (v/v) at 37 °C under shaking. […] Protein fibrils were systematically examined by transmission electron microscopy (TEM) in a Jeol 1400 transmission electron microscope following adsorption onto carbon-coated 200 mesh grids and negative staining with 1% uranyl acetate. The images were recorded with a Gatan Orius CCD camera (Gatan, Pleasanton, CA, USA). Finally, the percentage of α-syn or Aβ1-42 aggregated into fibrils was assessed by pelleting fibrils at 40,000× g for 20 min and by determining the concentration of soluble protein/peptide remaining in the supernatant.
(§3) The samples were incubated for 1 h at room temperature to achieve complete equilibration.

[2] = target: T2, Aβ1-42 fibrils (Homo sapiens, UniProt P05067); experiment: Inhibition of thioflavin T binding to Aβ1-42 fibrils (fluorescence competition), Ki determination; details: calculated from IC50, competition with ThT 500 nM, fibrils 500 nM, mean ± SD of 3 experiments; read-out: Ki Aβ
T2 construct: Wild-type α-syn and Aβ1-42 were expressed; made in house; host or cells: Escherichia coli BL21(DE3)
Method: as §1, §2, §3

[3] = target: T3, α-syn fibrils (Homo sapiens, UniProt P37840); experiment: Inhibition of thioflavin T binding to α-syn fibrils (fluorescence competition), Ki determination
T3 construct: made in house; host or cells: Escherichia coli BL21(DE3)
Method: as §1, §2, §3

[4] = target: T3, α-syn fibrils; experiment: Direct fluorescence titration on α-syn fibrils: Kd and Bmax; assay type: binding; details: direct assay on fibrils, mean ± SD of 3 experiments
Source text: (§4) In view of the interesting properties of compounds 33–39, we decided to switch to azaindole structures and to study the impact of the position of the nitrogen atom in the 6-membered ring on binding to fibrils. At this step we measured, in addition to the Ki values, the direct binding of each compound to fibrils through the fluorescence in the fraction bound to fibrils, which allowed us to determine the affinity values (Kd, Table 1). […] We therefore prepared a fluorinated derivative of compound 43, i.e., 45.
(§5) Fresh solutions of each tested compound (2.5 mM in DMSO) were diluted in PBS pH 7.4 at concentrations ranging from 0.5 nM to 5 µM in the presence or absence of α-syn, Aβ1-42, or Tau fibrils (200 nM, 500 nM, or 200 nM, respectively) in a final volume of 2 mL. After 1 h incubation at room temperature, the binding of each compound to α-syn, Aβ1-42, or Tau fibrils was assessed by fluorescence measurements using the appropriate excitation/emission wavelengths (i.e., those yielding the highest fluorescence ratio between fibril-bound and free compound). For any given concentration of compound added to the fibrils, the concentrations of compound bound to the fibrils and free in solution were determined on the basis of the measured fluorescence. Since at each point of the titration: Fm = FB × B + FF × (T − B) where Fm is the measured fluorescence of the compound in the presence of fibrils at a given compound concentration T, FB is the specific molar fluorescence of the bound compound, FF is the specific molar fluorescence of the free compound, and B is the concentration of compound bound to the fibrils at any point of the titration. FF was determined by measuring the fluorescence of known compound concentrations in the absence of fibrils. FB was determined by measuring the maximum fluorescence of known compound concentrations upon saturation with α-syn, Aβ1-42, or Tau fibrils.
(§6) Therefore, at each point of the titration, the concentration of bound compound B could be determined and was B = (Fm − FF × T)/FB − FF. The B values thus determined versus the respective concentrations of free compound were analyzed by fitting to the Michaelis-Menten equation.

[5] = target: T2, Aβ1-42 fibrils; experiment: Direct fluorescence titration on Aβ1-42 fibrils: Kd and Bmax; assay type: binding; details: direct assay on fibrils, mean ± SD of 3 experiments; read-out: Kd Aβ
Source text: as §4, §5, §6

[6] = target: T1, Tau fibrils (isoform h2N4RTau); experiment: Direct fluorescence titration on Tau fibrils: Kd and Bmax; assay type: binding; details: direct assay on fibrils, mean ± SD of 3 experiments
Source text: as §4, §5, §6

[7] = target: T3, α-syn fibrils; details: cited from earlier work
[8] = target: Aβ fibrils; details: cited from earlier work
[9] = target: T3, α-syn fibrils; experiment: Dynamic PET imaging and ex vivo brain radioactivity in rats with α-syn fibrils implanted in the right striatum; details: Wistar rat
Source text: The next step in the characterization of our new PET tracer was to evaluate its ability to bind in vivo to α-syn fibrils. For this aim, we performed a simple preliminary imaging experiment in which the same α-syn fibrils as those used in in vitro experiments were surgically and unilaterally implanted in the brains of two adult Wistar rats. The accumulation of [^18F]45 after intravenous (i.v.) injection was compared, in each animal, between the implanted and intact non-implanted side. The fibrils were administered by stereotaxic injection into the right striatum, [^18F]45 was i.v. injected 1 day later, and image acquisition began at the time of injection using a microPET eXplore Vista (GE Healthcare, Buc, France)/CT system during 3 h. PET images were reconstructed and analyzed in three regions of interest, i.e., the left striatum without fibrils (C-ST), the right striatum with fibrils (I-ST), and the cerebellum (CE). At the end of imaging acquisition, each rat was sacrificed, and brain regions were removed, weighed, and their radioactivity measured.
PET imaging experiments were performed with [^18F]45 on two adult male Wistar rats weighing 250–300 g (Janvier, Le Genest-Saint-Isle, France). The animals were housed in a temperature (23 °C) and humidity (43%) controlled environment under a 12-h light-dark cycle with food and water available ad libitum, and experimental procedures were conducted in accordance with the requirements of the European Community Council Directive 2010/63/EU for the care of laboratory animals and with the authorization of the Regional Ethical Committee (Authorization N°2012-03-1).
The rats were scanned one hour after receiving an intra-cerebral administration of α-syn. They were anesthetized with isoflurane (4% in O2, 500 mL/min, Baxter, France), placed on a stereotaxic frame (Stoelting, Phymep, Paris, France) and maintained under isoflurane 2.5% (500 mL/min) during surgery. Body temperature was monitored and kept at 37 °C. Fibrils of α-syn were prepared as described above (solution of 10 mg/mL in PBS). This solution was administered in two sites of the right striatum of each rat using a 25 μL Hamilton Gastight syringe (Hamilton, Massy, France) with a 30-gauge needle (Phymep, Paris, France) connected to a perfusion system. […]
For the PET experiment, each rat was anesthetized with isoflurane (Baxter, Guyancourt, France), at 4–5% in O2 for induction and then 1.5–2% during scanning, and received an i.v. bolus injection of 42–46 MBq of [^18F]45 (molar activity 99.69 GBq/µmol) into the tail vein. […] The quantification of the tracer uptake was extracted from the last 6 120-s frames corresponding to 49–61 min of acquisition after tracer injection. […] PET images were reconstructed and analyzed using PMOD (3.403, PMOD Technologies, Zurich, Switzerland). […]

[10] = target: tau fibrils; details: cited from earlier work
[11] = calculated from IC50, competition with ThT 500 nM, fibrils 200 nM, mean ± SD of 3 experiments

T1 sequence (P10636 1-441 isoform P10636-8): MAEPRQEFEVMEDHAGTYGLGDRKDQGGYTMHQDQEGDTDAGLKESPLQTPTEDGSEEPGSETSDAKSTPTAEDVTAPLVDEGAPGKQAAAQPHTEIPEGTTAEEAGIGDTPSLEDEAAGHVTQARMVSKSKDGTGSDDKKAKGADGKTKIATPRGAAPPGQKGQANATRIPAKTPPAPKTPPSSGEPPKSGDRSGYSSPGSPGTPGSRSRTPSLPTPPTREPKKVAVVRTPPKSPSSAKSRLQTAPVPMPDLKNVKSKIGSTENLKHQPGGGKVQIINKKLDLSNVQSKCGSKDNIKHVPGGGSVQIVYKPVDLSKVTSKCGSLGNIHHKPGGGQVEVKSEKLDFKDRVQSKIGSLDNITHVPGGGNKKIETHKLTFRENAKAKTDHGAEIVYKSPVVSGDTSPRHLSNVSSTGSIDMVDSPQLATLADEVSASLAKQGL
T2 sequence (P05067 672-713): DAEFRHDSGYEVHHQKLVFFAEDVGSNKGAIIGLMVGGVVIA

Structure (SMILES) | Ki [1] [nM] | Ki [2] [nM] | Ki [3] [nM] | further results
C(#Cc1cc2ccccc2[nH]1)c1ccccc1 [Compound 31] | 19.6 ± 2 | 68.9 ± 30 | > 100 | 
Cc1ccc(C#Cc2cc3ccccc3[nH]2)cc1 [Compound 32] | 13.1 ± 2 | 37.9 ± 13 | > 100 | 
CCc1ccc(C#Cc2cc3ccccc3[nH]2)cc1 [Compound 33] | 32.9 ± 8 | 3.3 ± 1 | 35.9 ± 5 | 
COc1ccc(C#Cc2cc3ccccc3[nH]2)cc1 [Compound 34] | 33.1 ± 7 | 68.9 ± 14 | 96.7 ± 14 | 
Nc1ccc(C#Cc2cc3ccccc3[nH]2)cc1 [Compound 35] | 123 ± 28 | 26.2 ± 11 | 40.4 ± 6 | 
Nc1cccc(C#Cc2cc3ccccc3[nH]2)c1 [Compound 36] | 7.2 ± 1 | 15.3 ± 7 | > 100 | 
CNc1ccc(C#Cc2cc3ccccc3[nH]2)cc1 [Compound 37] | 17.2 ± 3 | 6.6 ± 2 | 47.8 ± 9 | 
CN(C)c1ccc(C#Cc2cc3ccccc3[nH]2)cc1 [Compound 38] | 27.6 ± 3 | 64.4 ± 40 | 36 ± 7 | 
COc1ccc2[nH]c(C#Cc3ccc(N(C)C)cc3)cc2c1 [Compound 39] | 12.7 ± 1 |  | 21.7 ± 6 | 
CN(C)c1ccc(C#Cc2cc3cc(OCCF)ccc3[nH]2)cc1 [Compound 40] | 15.8 ± 3 | 10.1 ± 5 | > 100 | 
CN(C)c1ccc(C#Cc2cc3ncccc3[nH]2)cc1 [Compound 41] | 12 ± 1 | 21.3 ± 7 |  | Kd [4]: 3.25 ± 0.2 nM; Kd [5]: 2.9 ± 2 nM; Ki [3, 11]: 26 ± 16 nM; Kd [6]: 0.13 ± 0.05 nM
CN(C)c1ccc(C#Cc2cc3ccncc3[nH]2)cc1 [Compound 42] | 8.4 ± 1 | 91.5 ± 11 |  | Kd [4]: 1.4 ± 1 nM; Kd [5]: 5.2 ± 3 nM; Ki [3, 11]: 28.7 ± 8 nM; Kd [6]: 0.49 ± 0.2 nM
CN(C)c1ccc(C#Cc2cc3cnccc3[nH]2)cc1 [Compound 44] |  | 21.3 ± 7 | 26 ± 16 | Kd [4]: 1 ± 0.5 nM; Kd [5]: 3.6 ± 2 nM; Kd [6]: 2.4 ± 0.9 nM
CN([11CH3])c1ccc(-c2cc(-c3ccnc(Br)c3)[nH]n2)cc1 [[^11C]MODAG-001] |  |  |  | better affinity for α-syn as compared to Aβ and tau fibrils ([7]; in vitro): around 20 times
CN(c1ccc(/C=C/c2nc3ccccc3o2)cc1)S(=O)(=O)c1ccccc1[18F] [[^18F]2FBox] |  |  |  | Kd ([7]; in vitro, read-out: Kd for α-syn fibrils): 3.3 nM; Kd ([8]; in vitro, read-out: Kd for Aβ): 145 nM
CN(CC[18F])c1ccc(C#Cc2cc3cccnc3[nH]2)cc1 [[^18F]45] |  |  |  | radioactivity accumulation in the three brain regions (CE, I-ST, C-ST) at the end of imaging ([9]; ex vivo γ-counting after PET, n = 2): identical radioactivity accumulation; ability to cross the blood–brain barrier ([9]; i.v. 42–46 MBq, dynamic PET 3 h): able to cross the blood–brain barrier; brain uptake kinetics (time-activity curves) ([9]; i.v. 42–46 MBq, dynamic PET 3 h, CE, I-ST, C-ST): slow uptake and almost no washout; specificity of brain uptake / in vivo binding to implanted α-syn fibrils ([9]; α-syn fibrils in right striatum, i.v. 42–46 MBq): non-specific uptake was observed
COc1cccc2ccc(/C=N/N=C/c3ccc4cccc(OCC[18F])c4n3)nc12 [[^18F]BQ2] |  |  |  | Ki [7]: ~10 nM; Ki for Aβ ([8]; compared with Ki for α-syn): same Ki for Aβ
Cc1cc2nc(/C=C/c3ccc(O)c(Br)c3)sc2cc1N(C)CCOCC[18F] [[^18F]F0502B] |  |  |  | Kd ([7]; read-out: Kd for α-syn): ~10 nM; Kd ([8]; read-out: Kd for Aβ fibrils): ~100 nM; Kd [10]: ~100 nM
[18F]c1ccc2nc(/C=C/c3ccc(N4CCOCC4)cc3)sc2c1 [[^18F]MFSB] |  |  |  | Kd ([7]; read-out: Kd for α-syn): ~10 nM; Kd ([8]; read-out: Kd for Aβ fibrils): ~100 nM; Kd [10]: ~100 nM
O=C1/C(=C\C=C\c2ccc([N+](=O)[O-])cc2)c2ccccc2N1Cc1ccc(OCC[18F])cc1 [[^18F]indolone] |  |  |  | Ki ([7]; in vitro): 10 nM; selectivity towards Aβ fibrils ([8]; α-syn versus Aβ): 27 fold; selectivity for α-syn over tau fibrils ([10]; α-syn versus tau): 5 fold
